Columns and labels:
EGFR = EGFR (Homo sapiens, UniProt P00533); assay: Biochemical EGFR assay (bio EGFR), ELISA; set-up: A431 cell lysate (Screening Lab, SUGEN, Inc.); endogenous in cells; host or cells: A431; details: 50% inhibition of target PTK activity; read-out: bio EGFR (Page 5) IC50
Description: This assay measures the in vitro kinase activity of EGFR using ELISA.
6. A431 cell lysate (Screening Lab, SUGEN, Inc.)
1. Coat Corning 96 well ELISA plates with 0.5 μg […] in
100 μl PBS per well, store overnight at 4° C.
2. Remove unbound SUMO1 from wells by inverting plate to remove liquid. Wash 1× with dH2O. Pat the plate on a paper towel to remove excess liquid.
3. Add 150 μl of Blocking Buffer to each well. Incubate for 30 min. at room temperature with shaking.
4. Wash plate 3× with deionized water, then once with TBST. Pat plate on a paper towel to remove excess liquid and bubbles.
5. Dilute lysate in PBS (7 μg lysate/100 μl PBS).
6. Add 100 μl of diluted lysate to each well. Shake at room temperature for 60 min.
7. Wash plates as described in 4, above.
8. Add 120 μl TBS to ELISA plate containing captured EGFR.
9. Dilute test compound 1:10 in TBS in 96-well polypropylene plates (ie. 10 μl compound+90 μl TBS).
10. Add 13.5 μl diluted test compound to ELISA plate.
11. Incubate for 30 minutes while shaking at room temperature.
13. After 5 minutes, stop reaction by adding 16.5 μl of 200 mM EDTA (pH 8.0) to each well, shaking continuously. After the EDTA has been added, shake for 1 min.
14. Wash 4× with deionized water, twice with TBST.
15. Add 100 μl anti-phosphotyrosine (1:3000 dilution.in TBST) per well. Incubate 30-45 min. at room temperature, with shaking.
16. Wash as described in 4, above.
17. Add 100 μl Biosource Goat anti-rabbit IgG peroxidase conjugate (1:2000 dilution in TBST) to each well. Incubate 30 min. at room temperature, with shaking.
18. Wash as described in 4, above.
19. Add 100 μl of ABTS/H2O2 solution to each well.
20. Incubate 5 to 10 minutes with shaking. Remove any bubbles.
21. If necessary stop reaction with the addition of 100 μl 0.2 M HCl per well.
22. Read assay on Dynatech MR7000 ELISA reader. Test Filter: 410 nM Reference Filter: 630 nM

IGF-1 receptor = molecular target: T1, IGF-1 receptor (Homo sapiens, UniProt P08069); assay: Cellular IGF-1 receptor assay (cell IGF); format: cell-based; details: for IC50: 50% inhibition of target PTK activity; for cell IGF, outcome of primary assay: key: DNH = did not hit in primary assay
T1 construct: expressed in transfected cells; host or cells: NIH3T3/IGF-1R
T1 sequence (P08069 31-1367): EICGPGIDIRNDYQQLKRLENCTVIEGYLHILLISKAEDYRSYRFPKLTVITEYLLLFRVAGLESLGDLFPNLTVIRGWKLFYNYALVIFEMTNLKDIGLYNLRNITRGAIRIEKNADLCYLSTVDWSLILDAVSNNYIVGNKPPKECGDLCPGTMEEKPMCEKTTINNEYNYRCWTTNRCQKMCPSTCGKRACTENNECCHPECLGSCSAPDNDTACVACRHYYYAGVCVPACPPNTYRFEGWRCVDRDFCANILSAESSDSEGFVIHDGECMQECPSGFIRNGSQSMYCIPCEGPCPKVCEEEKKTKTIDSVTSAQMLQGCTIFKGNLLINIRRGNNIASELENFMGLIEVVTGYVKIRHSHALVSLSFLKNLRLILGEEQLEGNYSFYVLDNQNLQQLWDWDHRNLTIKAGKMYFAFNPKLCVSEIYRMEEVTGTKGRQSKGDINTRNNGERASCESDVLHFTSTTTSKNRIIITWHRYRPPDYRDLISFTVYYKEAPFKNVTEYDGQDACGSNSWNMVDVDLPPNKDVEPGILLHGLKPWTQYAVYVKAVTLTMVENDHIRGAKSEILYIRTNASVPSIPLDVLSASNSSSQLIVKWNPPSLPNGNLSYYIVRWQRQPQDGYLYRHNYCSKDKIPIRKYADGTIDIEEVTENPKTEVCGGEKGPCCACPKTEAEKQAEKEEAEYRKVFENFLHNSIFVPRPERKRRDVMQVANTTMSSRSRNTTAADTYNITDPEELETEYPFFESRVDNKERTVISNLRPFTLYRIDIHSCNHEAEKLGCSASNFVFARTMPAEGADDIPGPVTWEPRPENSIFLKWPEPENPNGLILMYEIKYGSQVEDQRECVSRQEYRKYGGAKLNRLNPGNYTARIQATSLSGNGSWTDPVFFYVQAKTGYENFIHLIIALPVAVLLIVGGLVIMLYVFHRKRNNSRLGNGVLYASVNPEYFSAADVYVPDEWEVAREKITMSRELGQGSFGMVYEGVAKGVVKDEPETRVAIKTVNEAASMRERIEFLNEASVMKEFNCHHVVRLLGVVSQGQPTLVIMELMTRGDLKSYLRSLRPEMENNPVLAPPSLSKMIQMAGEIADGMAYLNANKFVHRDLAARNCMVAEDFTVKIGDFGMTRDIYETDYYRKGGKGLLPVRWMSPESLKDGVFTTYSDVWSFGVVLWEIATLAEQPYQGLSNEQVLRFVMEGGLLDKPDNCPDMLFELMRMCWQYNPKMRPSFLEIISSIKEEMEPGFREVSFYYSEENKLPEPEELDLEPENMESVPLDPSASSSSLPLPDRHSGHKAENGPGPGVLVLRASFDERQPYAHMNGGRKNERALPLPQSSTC
Description: The following protocol may be used to measure phosphotyrosine level on IGF-1 receptor, which indicates IGF-1 receptor tyrosine kinase activity.
a. The cell line used in this assay is 3T3/IGF-1R, a cell line genetically engineered to overexpresses IGF-1 receptor.
2. […] Incubate for 1 day then replace medium to serum-free medium (90/μl) and incubate in 5% CO2 and 37° C. overnight.
2. Remove the coating solution, and replace with 100 μl Blocking Buffer, and shake for 30 minutes. Remove the blocking buffer and wash the plate just before adding lysate.
1. The drugs are tested under serum-free condition.
2. Dilute drug stock (in 100% DMSO) 1:10 with DMEM in 96-well poly-propylene plate, and transfer 10 μl/well of this solution to the cells to achieve final drug dilution 1:100, and final DMSO concentration of 1.0%. Incubate the cells in 5% CO2 at 37° C. for 2 hours.
3. Prepare fresh cell lysis buffer (HNTG*)
4. After drug incubation for two hours, transfer 10 μl/well of 200 nM IGF-1 Ligand in PBS to the cells (Final Conc. is 20 nM), and incubate at 5% CO2 at 37° C. for 10 minutes.
5. Remove media and add 100 μl/well HNTG* and shake for 10 minutes. Look at cells under microscope to see if they are adequately lysed.
6. Use a 12-channel pipette to scrape the cells from the plate, and homogenize the lysate by repeated aspiration and dispensing. Transfer all the lysate to the antibody coated ELISA plate, and shake for 1 hour.
7. Remove the lysate, wash the plate, transfer anti-pTyr (1:3,000 with TBST) 100 μl/well, and shake for 30 minutes.
8. Remove anti-pTyr, wash the plate, transfer TAGO (1:3,000 with TBST) 100 μl/well, and shake for 30 minutes.
9. Remove detection antibody, wash the plate, and transfer fresh ABTS/H2O2 (1.2 μl H2O2 to 10 ml ABTS) 100 μl/well to the plate to start color development.
10. Measure OD at 410 nm with a reference wavelength of 630 nm in Dynatec MR5000.

Chain of EGFR (P00533 25-1210): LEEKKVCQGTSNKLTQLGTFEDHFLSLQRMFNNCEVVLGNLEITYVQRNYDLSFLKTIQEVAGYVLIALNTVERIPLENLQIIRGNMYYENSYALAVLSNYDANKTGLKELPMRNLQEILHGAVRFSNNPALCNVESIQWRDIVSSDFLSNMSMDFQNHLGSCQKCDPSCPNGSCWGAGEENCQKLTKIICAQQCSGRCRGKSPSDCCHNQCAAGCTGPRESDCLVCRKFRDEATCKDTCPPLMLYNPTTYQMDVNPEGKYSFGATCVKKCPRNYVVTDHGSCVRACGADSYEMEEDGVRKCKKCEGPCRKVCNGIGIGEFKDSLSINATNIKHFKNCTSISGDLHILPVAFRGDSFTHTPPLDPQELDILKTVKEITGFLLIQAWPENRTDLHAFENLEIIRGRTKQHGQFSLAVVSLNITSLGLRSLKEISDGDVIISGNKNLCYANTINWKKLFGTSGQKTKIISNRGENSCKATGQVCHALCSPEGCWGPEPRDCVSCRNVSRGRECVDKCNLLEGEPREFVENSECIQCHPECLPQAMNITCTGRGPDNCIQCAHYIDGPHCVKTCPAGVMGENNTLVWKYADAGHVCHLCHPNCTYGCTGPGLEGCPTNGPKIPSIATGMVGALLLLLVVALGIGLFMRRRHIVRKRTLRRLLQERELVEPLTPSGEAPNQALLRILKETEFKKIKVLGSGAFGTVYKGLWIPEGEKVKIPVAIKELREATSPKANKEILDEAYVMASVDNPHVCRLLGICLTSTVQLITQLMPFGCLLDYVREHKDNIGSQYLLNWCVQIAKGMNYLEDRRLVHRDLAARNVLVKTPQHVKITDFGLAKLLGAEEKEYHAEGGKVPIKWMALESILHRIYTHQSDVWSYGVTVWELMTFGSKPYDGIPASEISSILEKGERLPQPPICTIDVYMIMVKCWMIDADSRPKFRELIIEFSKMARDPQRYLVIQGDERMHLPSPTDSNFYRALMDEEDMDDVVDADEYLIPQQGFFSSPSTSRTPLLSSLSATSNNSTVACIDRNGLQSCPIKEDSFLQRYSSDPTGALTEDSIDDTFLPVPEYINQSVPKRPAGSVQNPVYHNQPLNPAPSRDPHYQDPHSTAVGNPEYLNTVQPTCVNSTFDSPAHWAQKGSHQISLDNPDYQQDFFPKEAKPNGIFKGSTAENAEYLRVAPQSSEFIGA

SMILES | IC50 (EGFR) [µM] | cell IGF, outcome of primary assay (IGF-1 receptor) | IC50 (IGF-1 receptor) [µM]
CC1C/C(=C2/C(=O)Nc3ccccc32)c2ccccc21 (stereo not shown) [Compound 1, 3-(3-methylindan-1-ylidene)-1,3-dihydroindol-2-one] | > 100 | DNH | –
Cc1cccc2c1CC/C2=C1/C(=O)Nc2ccccc21 [Compound 2, 3-(4-Methylindan-1-ylidene)-1,3-dihydroindol-2-one] | > 100 | DNH | –
COc1ccc2c(c1)CC/C2=C1/C(=O)Nc2ccccc21 [Compound 3, 3-(5-Methoxyindan-1-ylidene)-1,3-dihydroindol-2-one] | > 100 | DNH | –
CN(C)c1ccc2c(c1)CC/C2=C1/C(=O)Nc2ccccc21 [Compound 5, 3-(5-Dimethylaminoindan-1-ylidene)-1,3-dihydroindol-2-one] | > 100 | DNH | –
O=C1Nc2ccccc2/C1=C1\CCc2cc(Cl)ccc21 [Compound 7, 3-(5-Chloroindan-1-ylidene)-1,3-dihydroindol-2-one] | > 100 | DNH | –
O=C1Nc2ccccc2/C1=C1\CCc2cc(N3CCCCC3)ccc21 [Compound 8, 3-(5-Piperidin-1-yl-indan-1-ylidene)-1,3-dihydroindol-2-one] | > 100 | DNH | –
O=C1Nc2ccccc2/C1=C1\CCc2cc(Br)ccc21 [Compound 9, 3-(5-Bromoindan-1-ylidene)-1,3-dihydroindol-2-one] | > 100 | DNH | –
O=C1Nc2ccccc2/C1=C1\CCc2ccccc21 [Compound 10, 3-Indan-1-ylidene-1,3-dihydroindol-2-one] | > 100 | – | > 100
COc1ccc2c(c1)C(CC(=O)O)C/C2=C1/C(=O)Nc2ccccc21 (stereo not shown) [Compound 11, [6-Methoxy-3-(2-oxo-1,2-dihydroindol-3-ylidene)-indan-1-yl]acetic Acid] | > 100 | – | > 100
COc1cc2c(cc1OC)/C(=C1\C(=O)Nc3ccccc31)CC2 [Compound 12, 3-(5,6-Dimethoxyindan-1-ylidene)-1,3-dihydroindol-2-one] | > 25 | – | > 25
COc1ccc2c(c1)C(CC(=O)[O-])CC2=C1C(=O)Nc2ccccc21.[Na+] (stereo not shown) [Compound 13, [6-Methoxy-3-(2-oxo-1,2-dihydroindol-3-ylidene)-indan-1-yl]acetic Acid Sodium Salt] | > 100 | – | > 100

Reference: patent US6642251B1, “Geometrically restricted 2-indolinone derivatives as modulators of protein kinase activity” (Sugen, Inc., priority 1998, dated 2003)
